Results as given in US20070128217A1 (priority 2003, published 2007).

How the values were obtained:
[1] = test system: recombinant human anti-SARS-CoV antibody 03-018; assay type: binding; parameters: Binding of antibody 03-018 to linear peptides of the N protein of SARS-CoV Urbani / Binding of antibody 03-018 to looped/cyclic peptides of the N protein of SARS-CoV Urbani: unit not given here
[2] = test system: antibodies in sera from SARS patients (sera 1a, 1b, 2, 6, 37, 62, London, SARS-yellow, SARS-green); assay type: binding, human; parameters: Binding of serum 6 to linear peptides of protein X1 of SARS-CoV Urbani / Binding of serum 37 to linear peptides of protein X1 of SARS-CoV Urbani / Binding of serum 6 to looped/cyclic peptide (PEPSCAN-ELISA) / Binding of serum 37 to looped/cyclic peptide (PEPSCAN-ELISA) / Binding of serum 37 to looped/cyclic peptides of protein X1 of SARS-CoV Urbani / Binding of serum 6 to linear peptides of protein X2 / Binding of serum 37 to linear peptides of protein X2 / Binding of serum 37 to looped/cyclic peptides of protein X2 of SARS-CoV Urbani / Binding of serum 6 to linear peptides of protein M of SARS-CoV Urbani / Binding of serum 37 to linear peptides of protein M of SARS-CoV Urbani / Binding of serum 6 to looped/cyclic peptides of protein M of SARS-CoV Urbani / Binding of serum 37 to looped/cyclic peptides of protein M of SARS-CoV Urbani / Binding of serum 6 to linear peptides of protein X3 of SARS-CoV Urbani / Binding of serum 37 to linear peptides of protein X3 of SARS-CoV Urbani / Binding of serum 37 to looped/cyclic peptides of protein X3 of SARS-CoV Urbani / Binding of serum 6 to linear peptides of protein X4 of SARS-CoV Urbani / Binding of serum 37 to linear peptides of protein X4 of SARS-CoV Urbani / Binding of serum 37 to looped/cyclic peptides of protein X4 of SARS-CoV Urbani / Binding of serum 6 to linear peptides of protein X5 of SARS-CoV Urbani / Binding of serum 37 to linear peptides of protein X5 of SARS-CoV Urbani / Binding of serum 37 to looped/cyclic peptides of protein X5 of SARS-CoV Urbani / Binding of serum 6 to linear peptides of protein N of SARS-CoV Urbani / Binding of serum 37 to linear peptides of protein N of SARS-CoV Urbani / Binding of serum 6 to linear peptide (PEPSCAN-ELISA) / Binding of serum 1a to looped/cyclic peptides of protein N of SARS-CoV Urbani / Binding of serum 1b to looped/cyclic peptides of protein N of SARS-CoV Urbani / Binding of serum 2 to looped/cyclic peptides of protein N of SARS-CoV Urbani / Binding of serum 6 to looped/cyclic peptides of protein N of SARS-CoV Urbani / Binding of serum 37 to looped/cyclic peptides of protein N of SARS-CoV Urbani / Binding of serum 62 to looped/cyclic peptides of protein N of SARS-CoV Urbani / Binding of serum London to looped/cyclic peptides of protein N of SARS-CoV Urbani / Binding of serum SARS-green to looped/cyclic peptides of protein N of SARS-CoV Urbani: unit not given here
[3] = test system: rabbit serum obtained by immunizing a rabbit with the SARS-CoV strain Frankfurt 1; assay type: binding; parameters: Binding of a rabbit serum to linear peptides / Binding of a rabbit serum to looped peptides / Rabbit serum linear peptides / Rabbit serum looped peptides / Binding of a rabbit serum to linear peptides of protein N of SARS-CoV Urbani (Rabbit serum linear peptides) / Binding of a rabbit serum to looped/cyclic peptides of protein N of SARS-CoV Urbani (Rabbit serum looped peptides): unit not given here
[4] = test system: control sera (pooled serum of ten healthy LUMC hospital workers; commercial negative donor pooled serum from the Dutch bloodbank); assay type: binding, human; parameters: Binding of Control serum LUMC to linear peptides / Binding of Control serum Blood-bank to linear peptides / Binding of Control serum LUMC to looped peptides / Binding of Control Serum Blood-Bank to Looped peptides / Binding of Control serum LUMC to linear peptides of the protein M of SARS-CoV Urbani / Binding of Control serum Blood-bank to linear peptides of the protein M of SARS-CoV Urbani / Binding of Control serum LUMC to looped peptides of the protein M of SARS-CoV Urbani / Binding of Control Serum Blood-Bank to Looped peptides of the protein M of SARS-CoV Urbani: unit not given here

STDNNQNGGRNGARP
Binding of antibody 03-018 to linear peptides of the N protein of SARS-CoV Urbani [1]: 0.2
Binding of antibody 03-018 to looped/cyclic peptides of the N protein of SARS-CoV Urbani [1]: 0.2
Binding of serum 1a to linear peptides of protein N of SARS-CoV Urbani [2]: 0.2
Binding of serum 1a to looped/cyclic peptides of protein N of SARS-CoV Urbani [2]: 0.3
Binding of serum 1b to linear peptides of protein N of SARS-CoV Urbani [2]: 0.1
Binding of serum 1b to looped/cyclic peptides of protein N of SARS-CoV Urbani [2]: 0.2
Binding of serum 2 to linear peptides of protein N of SARS-CoV Urbani [2]: 0.2
Binding of serum 2 to looped/cyclic peptides of protein N of SARS-CoV Urbani [2]: 0.3
Binding of serum 6 to linear peptides of protein N of SARS-CoV Urbani [2]: 0.1
Binding of serum 6 to looped/cyclic peptides of protein N of SARS-CoV Urbani [2]: 0.2
Binding of serum 37 to linear peptides of protein N of SARS-CoV Urbani [2]: 0.8
Binding of serum 37 to looped/cyclic peptides of protein N of SARS-CoV Urbani [2]: 0.5
Binding of serum 62 to linear peptides of protein N of SARS-CoV Urbani [2]: 0.7
Binding of serum 62 to looped/cyclic peptides of protein N of SARS-CoV Urbani [2]: 0.2
Binding of serum London to linear peptides of protein N of SARS-CoV Urbani [2]: 0.5
Binding of serum London to looped/cyclic peptides of protein N of SARS-CoV Urbani [2]: 0.3
Binding of serum SARS-green to linear peptides of protein N of SARS-CoV Urbani [2]: 0.4
Binding of serum SARS-green to looped/cyclic peptides of protein N of SARS-CoV Urbani [2]: 0.4
Binding of serum SARS-yellow to linear peptides of protein N of SARS-CoV Urbani [2]: 0.6
Binding of serum SARS-yellow to looped/cyclic peptides of protein N of SARS-CoV Urbani [2]: 0.3
Binding of a rabbit serum to linear peptides of protein N of SARS-CoV Urbani (Rabbit serum linear peptides) [3]: 0.1
Binding of a rabbit serum to looped/cyclic peptides of protein N of SARS-CoV Urbani (Rabbit serum looped peptides) [3]: 0.2
Binding of Control Serum Blood-Bank to Looped peptides [4]: 0.5
Binding of Control serum Blood-bank to linear peptides [4]: 0.7
Binding of Control serum LUMC to linear peptides [4]: 0.6
Binding of Control serum LUMC to looped peptides [4]: 0.5

SQASSRSSSRSRGNS
Binding of antibody 03-018 to linear peptides of the N protein of SARS-CoV Urbani [1]: 0.1
Binding of antibody 03-018 to looped/cyclic peptides of the N protein of SARS-CoV Urbani [1]: 0.2
Binding of serum 1a to linear peptide (PEPSCAN-ELISA) [2]: 0.2
Binding of serum 1a to looped/cyclic peptides of protein N of SARS-CoV Urbani [2]: 0.3
Binding of serum 1b to linear peptide (PEPSCAN-ELISA) [2]: 0.1
Binding of serum 1b to looped/cyclic peptides of protein N of SARS-CoV Urbani [2]: 0.2
Binding of serum 2 to linear peptide (PEPSCAN-ELISA) [2]: 0.2
Binding of serum 2 to looped/cyclic peptides of protein N of SARS-CoV Urbani [2]: 0.3
Binding of serum 6 to linear peptide (PEPSCAN-ELISA) [2]: 0.4
Binding of serum 6 to looped/cyclic peptides of protein N of SARS-CoV Urbani [2]: 0.2
Binding of serum 37 to linear peptide (PEPSCAN-ELISA) [2]: 0.6
Binding of serum 37 to looped/cyclic peptides of protein N of SARS-CoV Urbani [2]: 0.5
Binding of serum 62 to linear peptide (PEPSCAN-ELISA) [2]: 0.6
Binding of serum 62 to looped/cyclic peptides of protein N of SARS-CoV Urbani [2]: 0.4
Binding of serum London to linear peptide (PEPSCAN-ELISA) [2]: 0.4
Binding of serum London to looped/cyclic peptides of protein N of SARS-CoV Urbani [2]: 0.4
Binding of serum SARS-green to linear peptide (PEPSCAN-ELISA) [2]: 0.2
Binding of serum SARS-green to looped/cyclic peptides of protein N of SARS-CoV Urbani [2]: 0.0
Binding of serum SARS-yellow to linear peptide (PEPSCAN-ELISA) [2]: 0.6
Binding of serum SARS-yellow to looped/cyclic peptides of protein N of SARS-CoV Urbani [2]: 0.3
Binding of a rabbit serum to linear peptides of protein N of SARS-CoV Urbani (Rabbit serum linear peptides) [3]: 0.1
Binding of a rabbit serum to looped/cyclic peptides of protein N of SARS-CoV Urbani (Rabbit serum looped peptides) [3]: 0.6
Binding of Control Serum Blood-Bank to Looped peptides [4]: 0.6
Binding of Control serum Blood-bank to linear peptides [4]: 0.7
Binding of Control serum LUMC to linear peptides [4]: 0.7
Binding of Control serum LUMC to looped peptides [4]: 0.6

GFYAEGSRGGSQASS
Binding of antibody 03-018 to linear peptides of the N protein of SARS-CoV Urbani [1]: 0.1
Binding of antibody 03-018 to looped/cyclic peptides of the N protein of SARS-CoV Urbani [1]: 0.2
Binding of serum 1a to linear peptide (PEPSCAN-ELISA) [2]: 0.3
Binding of serum 1a to looped/cyclic peptides of protein N of SARS-CoV Urbani [2]: 0.3
Binding of serum 1b to linear peptide (PEPSCAN-ELISA) [2]: 0.1
Binding of serum 1b to looped/cyclic peptides of protein N of SARS-CoV Urbani [2]: 0.2
Binding of serum 2 to linear peptide (PEPSCAN-ELISA) [2]: 0.2
Binding of serum 2 to looped/cyclic peptides of protein N of SARS-CoV Urbani [2]: 0.4
Binding of serum 6 to linear peptide (PEPSCAN-ELISA) [2]: 0.4
Binding of serum 6 to looped/cyclic peptides of protein N of SARS-CoV Urbani [2]: 0.3
Binding of serum 37 to linear peptide (PEPSCAN-ELISA) [2]: 0.7
Binding of serum 37 to looped/cyclic peptides of protein N of SARS-CoV Urbani [2]: 0.3
Binding of serum 62 to linear peptide (PEPSCAN-ELISA) [2]: 0.5
Binding of serum 62 to looped/cyclic peptides of protein N of SARS-CoV Urbani [2]: 0.2
Binding of serum London to linear peptide (PEPSCAN-ELISA) [2]: 0.4
Binding of serum London to looped/cyclic peptides of protein N of SARS-CoV Urbani [2]: 0.3
Binding of serum SARS-green to linear peptide (PEPSCAN-ELISA) [2]: 0.1
Binding of serum SARS-green to looped/cyclic peptides of protein N of SARS-CoV Urbani [2]: 0.3
Binding of serum SARS-yellow to linear peptide (PEPSCAN-ELISA) [2]: 0.4
Binding of serum SARS-yellow to looped/cyclic peptides of protein N of SARS-CoV Urbani [2]: 0.1
Binding of a rabbit serum to linear peptides of protein N of SARS-CoV Urbani (Rabbit serum linear peptides) [3]: 0.1
Binding of a rabbit serum to looped/cyclic peptides of protein N of SARS-CoV Urbani (Rabbit serum looped peptides) [3]: 0.0
Binding of Control Serum Blood-Bank to Looped peptides [4]: 0.5
Binding of Control serum Blood-bank to linear peptides [4]: 0.7
Binding of Control serum LUMC to linear peptides [4]: 0.6
Binding of Control serum LUMC to looped peptides [4]: 0.5

DKKKKTDEAQPLPQR
Binding of antibody 03-018 to linear peptides of the N protein of SARS-CoV Urbani [1]: 0.1
Binding of antibody 03-018 to looped/cyclic peptides of the N protein of SARS-CoV Urbani [1]: 0.2
Binding of serum 1a to linear peptides of protein N of SARS-CoV Urbani [2]: 0.2
Binding of serum 1a to looped/cyclic peptides of protein N of SARS-CoV Urbani [2]: 0.2
Binding of serum 1b to linear peptides of protein N of SARS-CoV Urbani [2]: 0.1
Binding of serum 1b to looped/cyclic peptides of protein N of SARS-CoV Urbani [2]: 0.1
Binding of serum 2 to linear peptides of protein N of SARS-CoV Urbani [2]: 0.2
Binding of serum 2 to looped/cyclic peptides of protein N of SARS-CoV Urbani [2]: 0.2
Binding of serum 6 to linear peptides of protein N of SARS-CoV Urbani [2]: 0.2
Binding of serum 6 to looped/cyclic peptides of protein N of SARS-CoV Urbani [2]: 0.1
Binding of serum 37 to linear peptides of protein N of SARS-CoV Urbani [2]: 0.6
Binding of serum 37 to looped/cyclic peptides of protein N of SARS-CoV Urbani [2]: 0.4
Binding of serum 62 to linear peptides of protein N of SARS-CoV Urbani [2]: 0.6
Binding of serum 62 to looped/cyclic peptides of protein N of SARS-CoV Urbani [2]: 0.3
Binding of serum London to linear peptides of protein N of SARS-CoV Urbani [2]: 0.5
Binding of serum London to looped/cyclic peptides of protein N of SARS-CoV Urbani [2]: 0.3
Binding of serum SARS-green to linear peptides of protein N of SARS-CoV Urbani [2]: 0.5
Binding of serum SARS-green to looped/cyclic peptides of protein N of SARS-CoV Urbani [2]: 0.3
Binding of serum SARS-yellow to linear peptides of protein N of SARS-CoV Urbani [2]: 0.6
Binding of serum SARS-yellow to looped/cyclic peptides of protein N of SARS-CoV Urbani [2]: 0.3
Binding of a rabbit serum to linear peptides of protein N of SARS-CoV Urbani (Rabbit serum linear peptides) [3]: 0.1
Binding of a rabbit serum to looped/cyclic peptides of protein N of SARS-CoV Urbani (Rabbit serum looped peptides) [3]: 0.3
Control Serum Blood-Bank Looped peptides [4]: 0.5
Control serum Blood-bank linear peptides [4]: 0.8
Control serum LUMC linear peptides [4]: 0.6
Control serum LUMC looped peptides [4]: 0.4
